Results reported in PubChem BioAssay (NCI).
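Tested at 5 concentrations; 48 h exposure; 96-well plates; endpoints linearly interpolated, else capped at highest concentration. GI50 marks 50% less growth. At the TGI there is no net growth.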

Test system: 786-0 renal
Test: NCI-60 cell line screen, 48 h

| SMILES | TGI | GI50 |
| --- | --- | --- |
| O=[n+]1c2c(n([O-])c3ccccc31)CCCCCCCCCC2 | > 100 µM |  |
| CNC(=S)N(C)C(=S)Nn1c(=O)c(C)nn(C)c1=S | > 100 µM |  |
| CCCCCCCCCC/C=C/CC(=O)SCCNC(=O)CCNC(=O)[C@@H](O)C(C)(C)COP(=O)(O)OP(=O)(O)OCC1OC(n2cnc3c(N)ncnc32)C(O)C1OP(=O)(O)O (stereo partly specified) | > 10 µM |  |
| OCCN1CN(CCO)CN(c2nc(N3CN(CCO)CN(CCO)C3)nc(N3CN(CCO)CN(CCO)C3)n2)C1 | 0.968 ng/mL | 0.631 ng/mL |
| Cc1c2cccnc2c(C)c2c1c1cc(CO)ccc1n2C | 12.7 µM | 2.17 µM |
| O=C1CN=C(C[N+](=O)[O-])c2ccccc21 | > 100 µM |  |
| CCCCN(CCCC)CC(C(=O)Nc1ccc([N+](=O)[O-])cc1[N+](=O)[O-])/C(C)=N\NC(=S)NN (stereo unspecified) | > 100 µM |  |
| S=C(N/N=C/c1ccco1)NC12CC3CC(CC(C3)C1)C2 | > 100 µM |  |
| CS(=O)(=O)N/N=C/CN1C(=O)c2ccccc2C1=O | > 100 µM |  |
| Ic1ccc(Nc2nc3nonc3nc2Nc2ccc(I)cc2)cc1 | > 100 µM | 0.332 µM |
| CCOC(=O)/C=C/C(C(=O)/C=C/c1ccc(OC2CCCCO2)c(OC)c1)=C(O)\C=C\c1ccc(OC2CCCCO2)c(OC)c1 (stereo unspecified) | 20.3 µM | 4.96 µM |
| COc1ccc(OC)c(NC(=O)C(=O)NNC(=O)c2sc(NNC(C)=O)nc2C)c1 | > 100 µM |  |
| O=[N+]([O-])c1nccn1CC(O)c1ccc(F)cc1 (stereo unspecified) | > 100 µM |  |
| COc1ccc(NC(=O)CCc2cc(-c3ccc(O)c(OC)c3)nc(NC#N)n2)cc1 | > 100 µM |  |
| O=C1c2ccccc2C2(Br)C(=O)c3ccccc3C12 (stereo unspecified) | > 100 µM |  |
| COc1ccc(N(C)c2ncnc3occ(C)c23)cc1 | > 100 µM | < 0.01 µM |
| CCOC(=O)Oc1c(OC)cc(C(=O)NC2CCc3cc(OC)c(OC)c(OC)c3-c3ccc(SC)c(=O)cc32)cc1OC (stereo unspecified) | 13 µM | 0.023 µM |
| CC(=O)Nc1ccc(C(=O)NN2C(=O)C(Cl)C2c2ccccc2)cc1 (stereo unspecified) | > 100 µM |  |
| COC(=O)c1cc2c(cc1O)[C@@H](NC(C)=O)CCc1cc(OC)c(OC)c(OC)c1-2 | > 100 µM | 0.0416 µM |

| SMILES | TGI | GI50 |
| --- | --- | --- |
| CC(C)(C)OC(=O)NCC(=O)OCc1ccccc1 | > 100 µM |  |
| COCCOc1cc(F)c2c(Nc3ccc(NC(=O)Cn4cc(C(C)C)nn4)cc3)ncnc2c1 | > 100 µM | 39.1 µM |
| Cc1ccc(SC(C)/C=C/NNC2=NC(c3ccccc3)C(c3ccccc3)=NN2)cc1 (stereo unspecified) | > 100 µM |  |
| CC(C)(C)[SiH]12(OC(C(F)(F)F)(C(F)(F)F)c3ccccc31)OC(C(F)(F)F)(C(F)(F)F)c1ccccc12 | 11.1 µM |  |
| Cc1nnc(S(=O)(=O)c2ccc(N=Nc3c(N)nc(N)nc3N)cc2)s1 | > 100 µM |  |
| O=S(O)CCCCSSCC(O)C(O)CSSCCCCS(=O)O (stereo unspecified) | > 100 µM |  |
| CNCCNc1c2c(c(NCCNC)c3c(CN(C)C)c[nH]c13)C(=O)c1ccccc1C2=O | 19.5 µM | 4.87 µM |
| O=C1OC(c2ccccc2)=N/C1=C/C=C/c1ccco1 | > 100 µM |  |
| Clc1ccc2c(NCCCNc3nccc(Nc4ccc(Br)cc4)n3)ccnc2c1 | 3.45 µM | 1.75 µM |
| Cc1ccccc1N1C(=O)/C(=C/c2ccc(N(CCC#N)CCC#N)cc2)N=C1c1cc([N+](=O)[O-])ccc1Cl | > 100 µM |  |
| CC1OC2CC(=O)OC2C2=C1C(=O)c1c(O)cccc1C2=O (stereo unspecified) | 0.292 µM | 0.149 µM |
| C/C1=C\CC[C@@]2(C)O[C@@H]2[C@H]2OC(=O)[C@@H](CN(C)C)[C@@H]2CC1 | 24 µM | 7.61 µM |
| C=C(C=O)C1CCC2(C(=O)O)CCC3(C)C(CCC4C5(C)CCC(O)C(C)(C)C5CCC43C)C12 (stereo unspecified) | 6.73 µM | 2.48 µM |
| Cc1ccc(S(=O)(=O)NCC2CCCCC2=O)cc1 (stereo unspecified) | > 100 µM |  |
| CCC[CH2][Sn]([CH2]CCC)([CH2]CCC)[O]C(=O)CC | 0.295 µM | 0.151 µM |
| CNC(=S)NC1CCCCC1NC(=S)NC (stereo unspecified) | > 100 µM |  |
| C=C(C)[C@@]12OC3(/C=C/C=C/CCCCC)O[C@@H]1[C@@H]1[C@@H]4O[C@]4(CO)[C@@H](O)[C@]4(O)C(=O)C(C)=C[C@H]4[C@@]1(O3)[C@H](C)[C@H]2OC(=O)c1ccccc1 | 2.53 µM | 1.23 µM |
| C=CC1CC12C(=O)C1OC2(C)C2C(=O)c3cc4ccccc4cc3C(=O)C12 (stereo unspecified) | 83 µM | 23.4 µM |

Test system: CAKI-1 renal
Test: NCI-60 cell line screen, 48 h

| SMILES | TGI [µM] | GI50 [µM] |
| --- | --- | --- |
| O=[n+]1c2c(n([O-])c3ccccc31)CCCCCCCCCC2 | > 100 |  |
| CCCCCCCCCC/C=C/CC(=O)SCCNC(=O)CCNC(=O)[C@@H](O)C(C)(C)COP(=O)(O)OP(=O)(O)OCC1OC(n2cnc3c(N)ncnc32)C(O)C1OP(=O)(O)O (stereo partly specified) | > 10 |  |
| Cc1c2cccnc2c(C)c2c1c1cc(CO)ccc1n2C | 10.5 | 2.06 |
| O=C1CN=C(C[N+](=O)[O-])c2ccccc21 | > 100 |  |
| S=C(N/N=C/c1ccco1)NC12CC3CC(CC(C3)C1)C2 | > 100 |  |
| CS(=O)(=O)N/N=C/CN1C(=O)c2ccccc2C1=O | > 100 |  |
| Ic1ccc(Nc2nc3nonc3nc2Nc2ccc(I)cc2)cc1 |  | 0.214 |
| CCOC(=O)/C=C/C(C(=O)/C=C/c1ccc(OC2CCCCO2)c(OC)c1)=C(O)\C=C\c1ccc(OC2CCCCO2)c(OC)c1 (stereo unspecified) | > 100 | 4.97 |
| COc1ccc(OC)c(NC(=O)C(=O)NNC(=O)c2sc(NNC(C)=O)nc2C)c1 | > 100 |  |
| O=[N+]([O-])c1nccn1CC(O)c1ccc(F)cc1 (stereo unspecified) | > 100 |  |
| COc1ccc(NC(=O)CCc2cc(-c3ccc(O)c(OC)c3)nc(NC#N)n2)cc1 | > 100 |  |
| O=C1c2ccccc2C2(Br)C(=O)c3ccccc3C12 (stereo unspecified) | > 100 |  |
| COc1ccc(N(C)c2ncnc3occ(C)c23)cc1 | > 100 | < 0.01 |
| CC(=O)Nc1ccc(C(=O)NN2C(=O)C(Cl)C2c2ccccc2)cc1 (stereo unspecified) | > 100 |  |
| COC(=O)c1cc2c(cc1O)[C@@H](NC(C)=O)CCc1cc(OC)c(OC)c(OC)c1-2 | > 100 | 0.0214 |
| COCCOc1cc(F)c2c(Nc3ccc(NC(=O)Cn4cc(C(C)C)nn4)cc3)ncnc2c1 | > 100 | > 100 |

| SMILES | TGI [µM] | GI50 [µM] |
| --- | --- | --- |
| Cc1ccc(SC(C)/C=C/NNC2=NC(c3ccccc3)C(c3ccccc3)=NN2)cc1 (stereo unspecified) | 46.6 |  |
| CC(C)(C)[SiH]12(OC(C(F)(F)F)(C(F)(F)F)c3ccccc31)OC(C(F)(F)F)(C(F)(F)F)c1ccccc12 | 25.3 |  |
| Cc1nnc(S(=O)(=O)c2ccc(N=Nc3c(N)nc(N)nc3N)cc2)s1 | > 100 |  |
| O=S(O)CCCCSSCC(O)C(O)CSSCCCCS(=O)O (stereo unspecified) | > 100 |  |
| CNCCNc1c2c(c(NCCNC)c3c(CN(C)C)c[nH]c13)C(=O)c1ccccc1C2=O | 16.8 | 4.71 |
| O=C1OC(c2ccccc2)=N/C1=C/C=C/c1ccco1 | > 100 |  |
| Clc1ccc2c(NCCCNc3nccc(Nc4ccc(Br)cc4)n3)ccnc2c1 | 3 | 1.53 |
| Cc1ccccc1N1C(=O)/C(=C/c2ccc(N(CCC#N)CCC#N)cc2)N=C1c1cc([N+](=O)[O-])ccc1Cl | > 100 |  |
| CC1OC2CC(=O)OC2C2=C1C(=O)c1c(O)cccc1C2=O (stereo unspecified) | 0.148 | 0.0423 |
| C/C1=C\CC[C@@]2(C)O[C@@H]2[C@H]2OC(=O)[C@@H](CN(C)C)[C@@H]2CC1 | 31.3 | 13.2 |
| Cc1ccc(S(=O)(=O)NCC2CCCCC2=O)cc1 (stereo unspecified) | 67.5 |  |
| CCC[CH2][Sn]([CH2]CCC)([CH2]CCC)[O]C(=O)CC | 0.214 | 0.0611 |
| CNC(=S)NC1CCCCC1NC(=S)NC (stereo unspecified) | > 100 |  |
| C=C(C)[C@@]12OC3(/C=C/C=C/CCCCC)O[C@@H]1[C@@H]1[C@@H]4O[C@]4(CO)[C@@H](O)[C@]4(O)C(=O)C(C)=C[C@H]4[C@@]1(O3)[C@H](C)[C@H]2OC(=O)c1ccccc1 | 0.0347 | < 0.01 |
| C=CC1CC12C(=O)C1OC2(C)C2C(=O)c3cc4ccccc4cc3C(=O)C12 (stereo unspecified) | 35.7 | 12 |

Test system: M14 melanoma
Test: NCI-60 cell line screen, 48 h

| SMILES | TGI | GI50 |
| --- | --- | --- |
| O=[n+]1c2c(n([O-])c3ccccc31)CCCCCCCCCC2 | > 100 µM |  |
| CNC(=S)N(C)C(=S)Nn1c(=O)c(C)nn(C)c1=S | > 100 µM |  |
| CCCCCCCCCC/C=C/CC(=O)SCCNC(=O)CCNC(=O)[C@@H](O)C(C)(C)COP(=O)(O)OP(=O)(O)OCC1OC(n2cnc3c(N)ncnc32)C(O)C1OP(=O)(O)O (stereo partly specified) | > 10 µM |  |
| OCCN1CN(CCO)CN(c2nc(N3CN(CCO)CN(CCO)C3)nc(N3CN(CCO)CN(CCO)C3)n2)C1 | 3.55 ng/mL | 1.36 ng/mL |
| Cc1c2cccnc2c(C)c2c1c1cc(CO)ccc1n2C | 10.4 µM | 2.49 µM |
| O=C1CN=C(C[N+](=O)[O-])c2ccccc21 | > 100 µM |  |
| CCCCN(CCCC)CC(C(=O)Nc1ccc([N+](=O)[O-])cc1[N+](=O)[O-])/C(C)=N\NC(=S)NN (stereo unspecified) | > 100 µM |  |
| S=C(N/N=C/c1ccco1)NC12CC3CC(CC(C3)C1)C2 | > 100 µM |  |
